Experimental data as given in patent US9011853B2, “B7-H4 fusion proteins and methods of use thereof” (Amplimmune, Inc., priority 2009, dated 2015).
Values joined by “and” are separate entries in the source; they are usually repeats but may differ in a detail not shown here. Equal entries are not always repeated.

Experiments:
DBA/1 mice [1] = test: Therapeutic CIA study AA#79 (female mice), disease score; assay type: in vivo, mouse
Procedure: (§1) DBA/1 mice (10 per group) aged 7-9 weeks were used for the CIA model. Mice from several vendors (Jackson Laboratories, Harlan Laboratories, and Taconic Farms) were tested and it was determined that Taconic mice are most appropriate for the CIA studies. Taconic mice develop more consistent and severe disease symptoms and show continued disease progression, while mice from the other vendors often show stable, less severe disease, even in the absence of treatment. female (F) mice in AA#79 and male (M) mice in AA#80, were tested to determine which gender to use in future experiments.
(§2) On the day before the study is initiated, the hair on the right flank of each mouse was removed using an electric clipper. A metal identification tag was placed on the right ear of each mouse. On Day 0, mice were immunized with 100 μL of chicken collagen type II/Complete Freund's Adjuvant (CII/CFA) emulsion in the right flank. On Day 20, the hair on the left flank of each mouse was removed using an electric clipper, and on Day 21, mice were immunized with 100 μL of chicken collagen type II/Incomplete Freund's Adjuvant (CII/IFA) emulsion in the left flank. Pre-filled syringes of CII/CFA and CII/IFA emulsion purchased from Hooke Laboratories were used to ensure consistent dosing with and potency of the immunogen.
(§3) Early arthritis symptoms, such as erythema and mild swelling, usually appear on Day 21, and on Day 28, more severe symptoms such as swelling in many digits and inflammation extending to the tarsal joint are typically present. Each limb is evaluated for severity of arthritis symptoms three times a week using a widely accepted arthritis severity score system, shown in Table 2. The scores from each of the 4 limbs are summed to yield the disease score of each mouse. […]
(§4) Treatment was initiated when the average disease score for the study animals was greater than four. This corresponded to Day 29 in AA#79 and Day 24 in […]. By waiting until animals are symptomatic, it was ensured that the model is performed in a therapeutic rather than prophylactic mode.
(§5) B7-H4-Ig, RPA110010, and murine B7-H4-Ig proteins were administered by intraperitoneal (IP) injection 3 times a week for a total of 8 doses. RPA110010 is an extracellular domain variant of B7-H4-Ig, SEQ ID NO:126. Control murine and human IgG proteins were given once a week for a total of 3 doses. […] All proteins were diluted to the desired concentration (500 μg in 500 μL, or 1 mg/mL) with sterile PBS immediately before injection. Vehicle control mice receive Amplimmune formulation buffer diluted 1:10 in PBS, with an injection volume of 500 μL.

DBA/1 mice [2] = test: Therapeutic CIA study AA#80 (male mice), disease score; assay type: in vivo, mouse; conditions: individual mice (Tag #)
Procedure: as §1, §2, §3, §4, §5

[3] = test system: CD4^+CD62L^+ naïve T cells; test: Mouse Th17 assay, IL-17A ELISA; assay type: cell-based
Procedure: CD4^+CD62L^+ naïve T cells were isolated from BALB/c mice as in the above examples, and activated by anti-CD3 and anti-CD28 bound beads in the presence of Th17 differntiation cocktail (TGF-β1 (10 ng/mL), IL-6 (50 ng/mL), IL-23 (4 ng/mL), anti-IL-4 (10 μg/mL), anti-IFN-γ (5 μg/mL) and anti-IL-2 (5 μg/mL)). Murine B7-H4-Ig (10 μg/mL) or retinoic acid (RA) (10 μM) was added to the cultures on day 0, day 1, or day 2 of the 4 day culture. IL-17A levels were measured by ELISA at the end of the 4 day culture.
The Th17 assay is 4 days in duration. In order to determine when B7-H4-Ig is acting, the Th17 assay was performed with the addition of 10 μg/mL of murine B7-H4-Ig, 10 μg/mL of mouse IgG control, or […] retinoic acid on Day 0, Day 1, or Day 2.
Peripheral T cells were obtained from spleens and inguinal lymph nodes of 6-9 week old BALB/c mice by mechanical disruption through a cell strainer followed by red blood cell (RBC) lysis.
Naïve helper T cells (CD4^+CD62L^+) were obtained using the Miltenyi Biotec microbead system. CD4^+ cells are enriched by negative selection, and followed by a positive selection of CD62L^+. In some experiments CD25+ cells were also depleted.
After selection, cells are activated in vitro with anti-CD3/CD28 beads at a 1:1 cell:bead ratio in the presence of the TH17 differentiation cocktail (TGF-β1 (10 ng/ml), IL-6 (50 ng/ml), IL-23 (4 ng/ml), anti-IL-2 (5 μg/ml), anti-IL-4 (10 μg/ml), and anti-IFN-γ (5 μg/ml)). Murine B7-H4-Ig is added at a final concentration of 1.25-20 μg/ml. Retinoic acid (RA) is used as positive control and mouse IgG is used as a negative control.
After 4 days of culture, cultures are spun down and supernatants are harvested and stored at <−65° C. until analyzed for IL-17A levels by ELISA.

MRL/lpr mice = test: MRL/lpr lupus mouse model, anti-dsDNA autoantibody ELISA; assay type: in vivo; conditions: individual MRL/lpr mouse, plasma diluted 1:2000
Procedure: MRL/lpr mice at 4 weeks of age were used in this experiment. Animals were tagged with metal tags on their right ears for identification. […] In the proof-of-concept study, combination treatments with recombinant murine B7-H4-Ig and CTX were tested. Mice received single or combination treatment of murine B7-H4-Ig (Lot#DEV-110-5-006) at 5 mg/kg with or without CTX at 50 mg/kg via IP injection, once every 2 weeks (FIG. 59). Murine B7-H4-Ig dosing regimen at 5 mg/kg (100 μg/mouse/injection), twice a week, was chosen based on in vivo studies of monoclonal antibody and fusion proteins. […] Blood samples ([…]) were taken from the submandibular vein (ARC SOP 8050.02.08) 3 days before the protein treatment and the every other week during and after treatments. Blood samples were collected in Microtainer® Blood Collection Tubes, and plasma was harvested from the supernatant of blood sample after centrifugation and stored at −80° C. freezer until use.
A positive anti-dsDNA autoantibody control was generated by pooling plasma from 5 aged MRL/lpr mice, approximately 8 months of age. The positive control plasma was aliquoted and stored at −80° C. freezer before use.
The dsDNA solution (10 mg/mL) was first generated by dissolving salmon testes DNA in PBS at 37° C. in a water bath followed by filtration through a 0.45 μm membrane filter. The dsDNA solution was aliquoted and stored at −80° C. before use.
On the day prior to the autoantibody ELISA, 100 μL of the dsDNA stock solution was first added to 10 mL of PBS resulting in a final concentration of 100 μg/ml. […] of the diluted dsDNA was then added to each well of Immulon 2HB 96-well flat bottom microtiter plates. Plates were placed in a humidified incubator at 37° C. without lids for overnight coating. Plates were washed 4 times with 300 μL of PBS/T [0.1% (v/v) Tween-20 (polysorbate 20) in PBS] using a microtiter plate washer (hydroFLEX, TECAN. Software: HydroControl) and then blocked with 200 μL of blocking buffer (10% fetal bovine serum in PBS) at room temperature for at least 1 h followed by 4 washes with 300 μL of PBS/T. The negative control (normal Balb/C mouse plasma, 1:2000 dilution), positive controls (1:5000, 1:10000, 1:20000 dilutions), and samples (1:2000 dilution) were diluted with blocking buffer. Next, 100 μL of each diluted control and sample was added to corresponding wells (duplicate wells) and incubated at room temperature for 2 h or at 4° C. overnight followed by 4 washes with 300 μL of PBS/T. For detection, 100 μL of anti-mouse IgG-HRP (Sigma, A9309, diluted to 1:10000 in blocking buffer) was added to each well and the plate was incubated at room temperature for 1 h followed by 4 washes with 400 μL of PBS/T.
Later, 100 μL of room temperature, pre-warmed TMB Substrate Reagent was added to each well. When the color developed optimally (about 10 min), 100 μL of stop solution (1% sulfuric acid) was added. The plate was then read for absorbance at 450 nm (OD450) using a microtiter plate reader (SPECTRAmax, Molecular Devices. Software: SoftMax Pro5.2).
All the blood samples were analyzed at the end of the study. The OD450 value of test samples was normalized relatively to the internal positive control at the 1:10000 dilution. The relative value rather than the absolute Ab concentration was used for comparison.
Female MRL/lpr mice at age of 4 weeks were divided into 4 groups (FIG. 59): vehicle, CTX alone, murine B7-H4-Ig alone and CTX plus murine B7-H4-Ig combination treatment (Combo). CTX was given IP, 50 mg/kg, once every 2 weeks. Murine B7-H4-Ig was administrated IP, 100 μg (5 mg/kg), and twice every week. The Combo group received CTX injection every 2 weeks and murine B7-H4-Ig 2 times every week at 5 mg/kg. Mice were treated for 7 weeks.
Plasma was collected from MRL/lpr mice pre-treatment (4 wk) and periodically up to 21 weeks of age.

Q: What does the source list for Syngis?
A: CIA disease score (DBA/1 mice [1]; AA#79, Study Day 12, individual mouse (Tag#)): 0 (2×) and 1 (3×) and 2; CIA disease score (DBA/1 mice [1]; AA#79, Study Day 18, individual mouse (Tag#)): 2 (4×) and 1 (2×); CIA disease score (DBA/1 mice [1]; AA#79, Study Day 22, individual mouse (Tag#)): 4 and 2 (4×) and 3; CIA disease score (DBA/1 mice [1]; AA#79, Study Day 25, individual mouse (Tag#)): 2 (4×) and 5 and 3; CIA disease score (DBA/1 mice [1]; AA#79, Study Day 27, individual mouse (Tag#)): 5 (2×) and 7 and 4 (2×) and 6; CIA disease score (DBA/1 mice [1]; AA#79, Study Day 29, individual mouse (Tag#)): 6 (3×) and 5 and 4 and 10; CIA disease score (DBA/1 mice [1]; AA#79, Study Day 32, individual mouse (Tag#)): 10 and 9 (2×) and 7 and 8; CIA disease score (DBA/1 mice [1]; AA#79, Study Day 34, individual mouse (Tag#)): 10 (2×) and 9 (2×) and 6; CIA disease score (DBA/1 mice [1]; AA#79, Study Day 36, individual mouse (Tag#)): 11 (2×) and 9 (2×) and 10 and 8; CIA disease score (DBA/1 mice [1]; AA#79, Study Day 39, individual mouse (Tag#)): 11 (2×) and 8 and 6 and 9 and 12; CIA disease score (DBA/1 mice [1]; AA#79, Study Day 41, individual mouse (Tag#)): 12 and 10 (2×) and 13 and 6 and 11; CIA disease score (DBA/1 mice [1]; AA#79, Study Day 43, individual mouse (Tag#)): 12 (2×) and 11 (2×) and 6 and 10; CIA disease score (DBA/1 mice [1]; AA#79, Study Day 46, individual mouse (Tag#)): 14 (2×) and 11 and 12 and 6 and 10; CIA disease score (DBA/1 mice [1]; AA#79, Study Day 48, individual mouse (Tag#)): 13 (3×) and 11 and 5 and 12; CIA disease score (DBA/1 mice [1]; AA#79, Study Day 50, individual mouse (Tag#)): 11 (2×) and 12 (3×) and 9; CIA disease score (DBA/1 mice [1]; AA#79, Study Day 54, individual mouse (Tag#)): 13 (2×) and 12 (3×) and 8; CIA disease score (DBA/1 mice [1]; AA#79, Study Day 57, individual mouse (Tag#)): 13 (2×) and 14 and 7 and 12 and 15; AA#80 CIA disease scores (DBA/1 mice [2]; Study Day 20): 4 (3×) and 1 and 2 (2×) and 5 and 3 and 6; AA#80 CIA disease scores (DBA/1 mice [2]; Study Day 22): 5 (4×) and 2 (2×) and 4 (2×) and 8; AA#80 CIA disease scores (DBA/1 mice [2]; Study Day 24): 5 (4×) and 6 (3×) and 3 and 8; AA#80 CIA disease scores (DBA/1 mice [2]; Study Day 27): 6 (4×) and 4 (2×) and 5 and 7 and 8; AA#80 CIA disease scores (DBA/1 mice [2]; Study Day 29): 6 (2×) and 5 (4×) and 4 and 7 and 11; AA#80 CIA disease scores (DBA/1 mice [2]; Study Day 31): 8 (3×) and 5 and 6 (3×) and 3 and 11; AA#80 CIA disease scores (DBA/1 mice [2]; Study Day 34): 10 and 7 (2×) and 8 (4×) and 6 and 11; AA#80 CIA disease scores (DBA/1 mice [2]; Study Day 36): 10 and 8 (5×) and 7 and 11 and 13; AA#80 CIA disease scores (DBA/1 mice [2]; Study Day 38): 11 (2×) and 6 (2×) and 8 and 7 (2×) and 10 (2×) and 12; AA#80 CIA disease scores (DBA/1 mice [2]; Study Day 41): 12 and 13 (2×) and 7 and 8 and 9 and 10 (2×) and 14; AA#80 CIA disease scores (DBA/1 mice [2]; Study Day 44): 10 and 14 and 7 (3×) and 8 and 11 and 12 and 13

Q: With `CC1=C(/C=C/C(C)=C/C=C/C(C)=C/C(=O)O)C(C)(C)CCC1` [RA, All trans-Retinoic Acid] as the compound, how does the “IL-17A expression (ELISA, day 4)” value ([3]; Th17 promoting conditions, relative to control mouse IgG (FIG. 56)) read?
A: reduced IL-17A expression

Q: And the “IL-17A inhibition by time of addition” value ([3]; murine B7-H4-Ig 10 μg/mL or RA 10 μM (b737 prints 10 mM) added day 0, day 1 or day 2 of 4 day culture (FIG. 53))?
A: inhibited IL-17A most potently when added at the beginning of the assay (day 0)

Q: Which “dsDNA autoantibody (OD450 normalized against positive control diluted at 1:10000)” value (MRL/lpr mice; mouse age 4 weeks (pre-treatment)) does the source give for `O=P1(N(CCCl)CCCl)NCCCO1` (centres unmarked) [CTX, Cyclophosphamide] here?
A: 0.15 and 0.46 and 0.05 and 0.09 and 0.01

Q: And the “dsDNA autoantibody (OD450 normalized against positive control diluted at 1:10000)” value (MRL/lpr mice; mouse age 7 weeks)?
A: 0.55 and 0.21 and 1.07 and 0.10 (2×)

Q: And the “dsDNA autoantibody (OD450 normalized against positive control diluted at 1:10000)” value (MRL/lpr mice; mouse age 8 weeks)?
A: 2.50 and 0.33 and 2.03 and 0.17 and 0.06

Q: And the “dsDNA autoantibody (OD450 normalized against positive control diluted at 1:10000)” value (MRL/lpr mice; mouse age 9 weeks)?
A: 3.46 and 2.09 and 2.26 and 0.79 and 0.26

Q: What about the “dsDNA autoantibody (OD450 normalized against positive control diluted at 1:10000)” value (MRL/lpr mice; mouse age 10 weeks) of the same compound?
A: 1.50 and 4.05 and 2.95 and 1.97 and 0.39

Q: And the “dsDNA autoantibody (OD450 normalized against positive control diluted at 1:10000)” value (MRL/lpr mice; mouse age 11 weeks)?
A: 2.97 and 4.67 and 3.75 and 2.21 and 0.55

Q: What about the “dsDNA autoantibody (OD450 normalized against positive control diluted at 1:10000)” value (MRL/lpr mice; mouse age 15 weeks) of the same compound?
A: 2.93 and 4.87 and 2.62 and 1.76 and 1.11

Q: And the “dsDNA autoantibody (OD450 normalized against positive control diluted at 1:10000)” value (MRL/lpr mice; mouse age 19 weeks)?
A: 2.61 and 11.76 and 3.05 and 2.58 and 1.26
